Results: publication PMC11005723, “Development of Complementary Photo‐arginine/lysine to Promote Discovery of Arg/Lys hPTMs Interactomes” (Advanced Science, 2024)
Non-standard residues stand in square brackets, D forms with d. No end group written: not given here. *: point of attachment. Biotin = O=C1N[C@H]2[C@H](CS[C@H]2CCCCC(=O)*)N1; R(dz) = photo-arginine

Test system: HEK293T nuclear lysates
Test: SILAC‐based pull‐down proteomics H4K5acK8ac/H4K5 (probes 8/5)
Format: binding, human
Settings: for B6 log2 (H4K5ac8ac/H4K5): replicate B6; for A6 log2 (H4K5ac8ac/H4K5): replicate A6
[1] = protein YWHAB, Bos taurus (CON_00829553.1)

Substance: probe 8: H4K5acK8ac peptide probe with photo‐arginine R(dz) and K(biotin) (SG[R(dz)]GK(Ac)GGK(Ac)GLGKGGK(Biotin))
- B6 log2 (H4K5ac8ac/H4K5) (protein MYH9 (P35579)): -0.04782
- A6 log2 (H4K5ac8ac/H4K5) (protein NAA10 (P41227)): -0.3046
- B6 log2 (H4K5ac8ac/H4K5) (protein NAA10 (P41227)): 0.05206
- A6 log2 (H4K5ac8ac/H4K5) (protein NACC1 (Q96RE7)): 0.2811
- B6 log2 (H4K5ac8ac/H4K5) (protein NACC1 (Q96RE7)): 0.03418
- A6 log2 (H4K5ac8ac/H4K5) (protein NFXL1 (Q6ZNB6)): 0.2111
- B6 log2 (H4K5ac8ac/H4K5) (protein NFXL1 (Q6ZNB6)): 0.02469
- A6 log2 (H4K5ac8ac/H4K5) (protein NOL9 (Q5SY16)): -0.2567
- B6 log2 (H4K5ac8ac/H4K5) (protein NOL9 (Q5SY16)): -0.02031
- A6 log2 (H4K5ac8ac/H4K5) (protein PA2G4 (Q9UQ80)): 0.1563
- B6 log2 (H4K5ac8ac/H4K5) (protein PA2G4 (Q9UQ80)): 0.03904
- A6 log2 (H4K5ac8ac/H4K5) (protein PACSIN2 (Q9UNF0)): 0
- B6 log2 (H4K5ac8ac/H4K5) (protein PACSIN2 (Q9UNF0)): -0.04928
- A6 log2 (H4K5ac8ac/H4K5) (protein PBX1 (A0A087X0P4)): 0.6964
- B6 log2 (H4K5ac8ac/H4K5) (protein PBX1 (A0A087X0P4)): 0.06283
- A6 log2 (H4K5ac8ac/H4K5) (protein POLR1A (B9ZVN9)): 0.06415
- B6 log2 (H4K5ac8ac/H4K5) (protein POLR1A (B9ZVN9)): -0.04145
- A6 log2 (H4K5ac8ac/H4K5) (protein PPA1 (Q15181)): 0.1577
- B6 log2 (H4K5ac8ac/H4K5) (protein PPA1 (Q15181)): 0.07333
- A6 log2 (H4K5ac8ac/H4K5) (protein PPP1CB (P62140)): -0.299
- B6 log2 (H4K5ac8ac/H4K5) (protein PPP1CB (P62140)): -0.01665
- A6 log2 (H4K5ac8ac/H4K5) (protein PPWD1 (F5H7P7)): -0.2794
- B6 log2 (H4K5ac8ac/H4K5) (protein PPWD1 (F5H7P7)): -0.02682
- A6 log2 (H4K5ac8ac/H4K5) (protein PRPF4 (O43172)): -0.3068
- B6 log2 (H4K5ac8ac/H4K5) (protein PRPF4 (O43172)): -0.007391
- A6 log2 (H4K5ac8ac/H4K5) (protein PRPF19 (Q9UMS4)): -0.3378
- B6 log2 (H4K5ac8ac/H4K5) (protein PRPF19 (Q9UMS4)): 0.03114
- A6 log2 (H4K5ac8ac/H4K5) (protein RAB18 (Q9NP72)): -0.7664
- B6 log2 (H4K5ac8ac/H4K5) (protein RAB18 (Q9NP72)): 0.06785
- A6 log2 (H4K5ac8ac/H4K5) (protein RBBP4 (Q09028)): -0.301
- B6 log2 (H4K5ac8ac/H4K5) (protein RBBP4 (Q09028)): -0.04139
- A6 log2 (H4K5ac8ac/H4K5) (protein RBBP5 (Q15291)): 0.327
- B6 log2 (H4K5ac8ac/H4K5) (protein RBBP5 (Q15291)): 0.03881
- A6 log2 (H4K5ac8ac/H4K5) (protein RBM17 (Q5W011)): -0.1033
- B6 log2 (H4K5ac8ac/H4K5) (protein RBM17 (Q5W011)): -0.0008232
- A6 log2 (H4K5ac8ac/H4K5) (protein RFC4 (C9JTT7)): -0.05533
- B6 log2 (H4K5ac8ac/H4K5) (protein RFC4 (C9JTT7)): 0.05642
- A6 log2 (H4K5ac8ac/H4K5) (protein RIF1 (Q5UIP0)): 0.1175
- B6 log2 (H4K5ac8ac/H4K5) (protein RIF1 (Q5UIP0)): 0.06957
- A6 log2 (H4K5ac8ac/H4K5) (protein RLTPR (Q6F5E8)): 0.7852
- B6 log2 (H4K5ac8ac/H4K5) (protein RLTPR (Q6F5E8)): 0.007574
- A6 log2 (H4K5ac8ac/H4K5) (protein RNF113A (O15541)): -0.4653
- B6 log2 (H4K5ac8ac/H4K5) (protein RNF113A (O15541)): 0.03846
- A6 log2 (H4K5ac8ac/H4K5) (protein RPL18A (M0R3D6)): -0.4315
- B6 log2 (H4K5ac8ac/H4K5) (protein RPL18A (M0R3D6)): -0.04492
- A6 log2 (H4K5ac8ac/H4K5) (protein RPL23 (P62829)): -0.1756
- B6 log2 (H4K5ac8ac/H4K5) (protein RPL23 (P62829)): 0.05216
- A6 log2 (H4K5ac8ac/H4K5) (protein SART1 (O43290)): -0.3683
- B6 log2 (H4K5ac8ac/H4K5) (protein SART1 (O43290)): 0.001654
- A6 log2 (H4K5ac8ac/H4K5) (protein SEPT9 (Q9UHD8)): 0.1535
- B6 log2 (H4K5ac8ac/H4K5) (protein SEPT9 (Q9UHD8)): -0.026
- A6 log2 (H4K5ac8ac/H4K5) (protein SKP1 (E5RJR5)): -0.01806
- B6 log2 (H4K5ac8ac/H4K5) (protein SKP1 (E5RJR5)): 0.0159
- A6 log2 (H4K5ac8ac/H4K5) (protein SMARCC1 (Q92922)): -0.08326
- B6 log2 (H4K5ac8ac/H4K5) (protein SMARCC1 (Q92922)): 0.04543
- A6 log2 (H4K5ac8ac/H4K5) (protein SMC4 (E9PD53)): -0.08362
- B6 log2 (H4K5ac8ac/H4K5) (protein SMC4 (E9PD53)): 0.02245
- A6 log2 (H4K5ac8ac/H4K5) (protein SRP9 (P49458)): -0.01043
- B6 log2 (H4K5ac8ac/H4K5) (protein SRP9 (P49458)): 0.03654
- A6 log2 (H4K5ac8ac/H4K5) (protein SRPRB (H7C4H2)): 0.3686
- B6 log2 (H4K5ac8ac/H4K5) (protein SRPRB (H7C4H2)): 0.07795
- A6 log2 (H4K5ac8ac/H4K5) (protein STRAP (Q9Y3F4)): 0.01226
- B6 log2 (H4K5ac8ac/H4K5) (protein STRAP (Q9Y3F4)): 0.01225
- A6 log2 (H4K5ac8ac/H4K5) (protein STUB1 (Q9UNE7)): 0.5197
- B6 log2 (H4K5ac8ac/H4K5) (protein STUB1 (Q9UNE7)): 0.03834
- A6 log2 (H4K5ac8ac/H4K5) (protein SUGP2 (M0R3F6)): -0.3599
- B6 log2 (H4K5ac8ac/H4K5) (protein SUGP2 (M0R3F6)): 0.02065
- A6 log2 (H4K5ac8ac/H4K5) (protein SYMPK (Q92797)): -0.08997
- B6 log2 (H4K5ac8ac/H4K5) (protein SYMPK (Q92797)): -0.0308
- A6 log2 (H4K5ac8ac/H4K5) (protein TBC1D4 (O60343)): 0.1383
- B6 log2 (H4K5ac8ac/H4K5) (protein TBC1D4 (O60343)): -0.03399
- A6 log2 (H4K5ac8ac/H4K5) (protein TBL3 (Q12788)): -0.1597
- B6 log2 (H4K5ac8ac/H4K5) (protein TBL3 (Q12788)): -0.02533
- A6 log2 (H4K5ac8ac/H4K5) (protein TKT (P29401)): -0.1341
- B6 log2 (H4K5ac8ac/H4K5) (protein TKT (P29401)): 0.0497
- A6 log2 (H4K5ac8ac/H4K5) (protein TMPO (P42167)): 0.4117
- B6 log2 (H4K5ac8ac/H4K5) (protein TMPO (P42167)): 0.03759
- A6 log2 (H4K5ac8ac/H4K5) (protein TTLL12 (Q14166)): 0.2441
- B6 log2 (H4K5ac8ac/H4K5) (protein TTLL12 (Q14166)): 0.0292
- A6 log2 (H4K5ac8ac/H4K5) (protein TXLNG (Q9NUQ3)): 0.4545
- B6 log2 (H4K5ac8ac/H4K5) (protein TXLNG (Q9NUQ3)): -0.0116
- A6 log2 (H4K5ac8ac/H4K5) (protein UHRF1 (Q96T88)): -0.6652
- B6 log2 (H4K5ac8ac/H4K5) (protein UHRF1 (Q96T88)): 0.04746
- A6 log2 (H4K5ac8ac/H4K5) (protein UHRF2 (Q96PU4)): -0.006334
- B6 log2 (H4K5ac8ac/H4K5) (protein UHRF2 (Q96PU4)): 0.0767
- A6 log2 (H4K5ac8ac/H4K5) (protein UPF1 (Q92900)): -0.46
- B6 log2 (H4K5ac8ac/H4K5) (protein UPF1 (Q92900)): -0.01045
- A6 log2 (H4K5ac8ac/H4K5) (protein VAPB (O95292)): -0.312
- B6 log2 (H4K5ac8ac/H4K5) (protein VAPB (O95292)): 0.06269
- A6 log2 (H4K5ac8ac/H4K5) (protein WAPAL (Q7Z5K2)): 0.1532
- B6 log2 (H4K5ac8ac/H4K5) (protein WAPAL (Q7Z5K2)): -0.009146
- A6 log2 (H4K5ac8ac/H4K5) (protein XRCC5 (P13010)): -0.05414
- B6 log2 (H4K5ac8ac/H4K5) (protein XRCC5 (P13010)): -0.03221
- A6 log2 (H4K5ac8ac/H4K5) [1]: -0.1065
- B6 log2 (H4K5ac8ac/H4K5) [1]: 0.02961
- A6 log2 (H4K5ac8ac/H4K5) (protein ZNF330 (Q9Y3S2)): 0.1967
- B6 log2 (H4K5ac8ac/H4K5) (protein ZNF330 (Q9Y3S2)): -0.03674
- A6 log2 (H4K5ac8ac/H4K5) (protein ZNF579 (Q8NAF0)): -0.0908
- B6 log2 (H4K5ac8ac/H4K5) (protein ZNF579 (Q8NAF0)): 0.0364
- A6 log2 (H4K5ac8ac/H4K5) (protein ZZZ3 (Q8IYH5)): -0.06959
- B6 log2 (H4K5ac8ac/H4K5) (protein ZZZ3 (Q8IYH5)): -0.004188
